Test results as given in the NIST ThermoML archive (doi:10.1016/j.jct.2006.08.008).

Columns and labels:
[1] = mn = molality of the nth substance listed, in mol/kg; details: 350 kPa, Liquid
[2] = molar heat capacity at constant pressure; mn = molality of the nth substance listed, in mol/kg; details: 350 kPa, Liquid

N[C@@H](CC(=O)O)C(=O)O [L-aminosuccinic acid] + O
Details | mass density, m1 = 0.002 [kg/m3] | mass density, m1 = 0.004 [kg/m3] | mass density, m1 = 0.00601 [kg/m3] | mass density, m1 = 0.00801 [kg/m3] | mass density, m1 = 0.01 [kg/m3] | molar heat capacity at constant pressure, m1 = 0.002 [J/K/mol] | molar heat capacity at constant pressure, m1 = 0.004 [J/K/mol] | molar heat capacity at constant pressure, m1 = 0.00601 [J/K/mol] | molar heat capacity at constant pressure, m1 = 0.00801 [J/K/mol] | molar heat capacity at constant pressure, m1 = 0.01 [J/K/mol]
[1], 278.15 K | 1000.34 | 1000.29 | 1000.42 | 1000.62 | 1000.79 | – | – | – | – | –
[1], 283.15 K | 1000.09 | 1000.05 | 1000.2 | 1000.36 | 1000.48 | – | – | – | – | –
[1], 288.15 K | 999.47 | 999.41 | 999.59 | 999.76 | 999.84 | – | – | – | – | –
[1], 298.15 K | 997.39 | 997.34 | 997.51 | 997.69 | 997.73 | – | – | – | – | –
[1], 308.15 K | 994.35 | 994.31 | 994.5 | 994.64 | 994.7 | – | – | – | – | –
[1], 318.15 K | 990.53 | 990.51 | 990.66 | 990.76 | 990.87 | – | – | – | – | –
[1], 328.15 K | 985.99 | 986.02 | 986.15 | 986.25 | 986.33 | – | – | – | – | –
[1], 338.15 K | 980.85 | 980.89 | 981.01 | 981.13 | 981.18 | – | – | – | – | –
[1], 348.15 K | 975.14 | 975.19 | 975.26 | 975.41 | 975.51 | – | – | – | – | –
[1], 358.15 K | 968.93 | 968.98 | 969.03 | 969.18 | 969.3 | – | – | – | – | –
[1], 368.15 K | 962.17 | 962.28 | 962.3 | 962.49 | 962.59 | – | – | – | – | –
[2], 278.15 K | – | – | – | – | – | 75.71 | 75.71 | 75.71 | 75.71 | 75.71
[2], 283.15 K | – | – | – | – | – | 75.54 | 75.54 | 75.54 | 75.54 | 75.54
[2], 288.15 K | – | – | – | – | – | 75.42 | 75.42 | 75.43 | 75.43 | 75.42
[2], 293.15 K | – | – | – | – | – | 75.34 | 75.34 | 75.35 | 75.35 | 75.35
[2], 298.15 K | – | – | – | – | – | 75.29 | 75.29 | 75.3 | 75.3 | 75.3
[2], 303.15 K | – | – | – | – | – | 75.26 | 75.26 | 75.27 | 75.27 | 75.27
[2], 308.15 K | – | – | – | – | – | 75.25 | 75.25 | 75.25 | 75.26 | 75.26
[2], 313.15 K | – | – | – | – | – | 75.25 | 75.25 | 75.25 | 75.26 | 75.26
[2], 318.15 K | – | – | – | – | – | 75.26 | 75.26 | 75.27 | 75.27 | 75.27
[2], 323.15 K | – | – | – | – | – | 75.28 | 75.28 | 75.29 | 75.29 | 75.29
[2], 328.15 K | – | – | – | – | – | 75.31 | 75.32 | 75.32 | 75.33 | 75.33
[2], 333.15 K | – | – | – | – | – | 75.35 | 75.36 | 75.36 | 75.37 | 75.37
[2], 338.15 K | – | – | – | – | – | 75.4 | 75.41 | 75.41 | 75.41 | 75.42
[2], 343.15 K | – | – | – | – | – | 75.46 | 75.47 | 75.47 | 75.47 | 75.48
[2], 348.15 K | – | – | – | – | – | 75.52 | 75.53 | 75.53 | 75.54 | 75.54
[2], 353.15 K | – | – | – | – | – | 75.6 | 75.61 | 75.61 | 75.61 | 75.61
[2], 358.15 K | – | – | – | – | – | 75.68 | 75.69 | 75.69 | 75.69 | 75.69
[2], 363.15 K | – | – | – | – | – | 75.76 | 75.77 | 75.77 | 75.78 | 75.78
[2], 368.15 K | – | – | – | – | – | 75.86 | 75.87 | 75.87 | 75.87 | 75.87
[2], 373.15 K | – | – | – | – | – | 75.96 | 75.97 | 75.97 | 75.97 | 75.98
[2], 378.15 K | – | – | – | – | – | 76.07 | 76.08 | 76.08 | 76.09 | 76.09
[2], 383.15 K | – | – | – | – | – | 76.2 | 76.2 | 76.2 | 76.21 | 76.21
[2], 388.15 K | – | – | – | – | – | 76.33 | 76.34 | 76.33 | 76.34 | 76.34
[2], 393.15 K | – | – | – | – | – | 76.47 | 76.48 | 76.48 | 76.48 | 76.48
